From PubChem BioAssay AID330 (DTP/NCI, 2004)
Values joined by “and” are separate entries in the source; they are usually repeats but may differ in a detail not shown here. Identical values can stand only once. Inconclusive results and toxic doses are left out. The calls were made as follows: active = survival T/C of 150% or more; inactive = T/C below 125% in these data.

Test system: P388 leukemia ip, CD2F1 mice, survival T/C
Test: NCI In Vivo Anticancer Drug Screen. Data for tumor model P388 Leukemia (intraperitoneal) in CD2F1 (CDF1) mice
Conditions: endpoint: median survival time, higher = longer survival
Summary of the method: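 Mice carrying the transplanted tumor received test compound or vehicle. Survival was recorded in each group, and the value is the treated-group measurement divided by that of the vehicle-treated control group.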

[1] = dose: 50.0 mg/kg/injection, schedule: Q01DX005 (ip), vehicle: Klucel (hydroxypropylcellulose) (HPC)
[2] = dose: 100.0 mg/kg/injection, schedule: Q01DX005 (ip), vehicle: Klucel (hydroxypropylcellulose) (HPC)
[3] = dose: 200.0 mg/kg/injection, schedule: Q01DX005 (ip), vehicle: Klucel (hydroxypropylcellulose) (HPC)
[4] = dose: 12.5 mg/kg/injection, schedule: Q01DX009 (ip), vehicle: saline with Tween-80
[5] = dose: 25.0 mg/kg/injection, schedule: Q01DX009 (ip), vehicle: saline with Tween-80
[6] = dose: 50.0 mg/kg/injection, schedule: Q01DX009 (ip), vehicle: saline with Tween-80
[7] = dose: 12.5 mg/kg/injection, schedule: Q01DX001 (ip), vehicle: saline with Tween-80
[8] = dose: 25.0 mg/kg/injection, schedule: Q01DX001 (ip), vehicle: saline with Tween-80
[9] = dose: 100.0 mg/kg/injection, schedule: Q01DX009 (ip), vehicle: saline with Tween-80
[10] = dose: 50.0 mg/kg/injection, schedule: Q01DX005 (ip), vehicle: saline with Tween-80
[11] = dose: 100.0 mg/kg/injection, schedule: Q01DX005 (ip), vehicle: saline with Tween-80
[12] = dose: 200.0 mg/kg/injection, schedule: Q01DX005 (ip), vehicle: saline with Tween-80

Measured: T/C

COC(c1ccccc1)(c1ccccc1)c1ccc2ccc3ccccc3c2c1
inactive: [1] 91 % of control | [2] 96 % of control | [3] 95 % of control

NNC(=O)C1CCCC1
inactive: dose: 6.25 mg/kg/injection, schedule: Q01DX009 (ip), vehicle: saline with Tween-80 113 % of control | [4] 104 % of control | [5] 100 % of control | [6] 113 % of control

Cc1ccc2c(c1)C(=O)CC=C(C(=O)O)N2
inactive: dose: 100.0 mg/kg/injection, schedule: Q01DX009 (ip), vehicle: Klucel (hydroxypropylcellulose) (HPC) 98 % of control | dose: 200.0 mg/kg/injection, schedule: Q01DX009 (ip), vehicle: Klucel (hydroxypropylcellulose) (HPC) 104 % of control | dose: 400.0 mg/kg/injection, schedule: Q01DX009 (ip), vehicle: Klucel (hydroxypropylcellulose) (HPC) 111 % of control | dose: 600.0 mg/kg/injection, schedule: Q01DX009 (ip), vehicle: Klucel (hydroxypropylcellulose) (HPC) 89 % of control

CC1=CC(=N\S(=O)(=O)c2ccccc2)/c2ccccc2/C1=N/S(=O)(=O)c1ccccc1
inactive: [7] 104 % of control | [8] 100 % of control | dose: 50.0 mg/kg/injection, schedule: Q01DX001 (ip), vehicle: saline with Tween-80 95 % of control

O=C1c2cc(Cl)ccc2-c2c(Cl)cc(Cl)cc21
inactive: [4] 87 % of control | [5] 100 % of control | [6] 100 % of control

CCOC(=O)Nc1ccc2nc(N3CCCCC3)sc2c1
inactive: [6] 96 % of control | [9] 90 % of control

CCOC(=O)Cc1c[nH]c2ccc(N(CCO)CCO)cc12
inactive: dose: 25.0 mg/kg/injection, schedule: Q01DX005 (ip), vehicle: Klucel (hydroxypropylcellulose) (HPC) 101 % of control | [1] 102 % of control | [2] 102 % of control | [3] 98 % of control

Cc1nc2c3c4c(sc3nc(C)n2n1)CCCC4
inactive: [1] 105 % of control | [2] 100 % of control | [3] 98 % of control

N#CN=CN1CCC(Cc2ccccc2)CC1
inactive: [6] 101 % of control | [9] 101 % of control

CCNC(C)(C)C(SSSC(c1ccc(Cl)cc1)C(C)(C)NCC)c1ccc(Cl)cc1 (stereo unspecified)
inactive: dose: 6.25 mg/kg/injection, schedule: Q01DX009 (ip), vehicle: saline 109 % of control | dose: 12.5 mg/kg/injection, schedule: Q01DX009 (ip), vehicle: saline 115 % of control | dose: 25.0 mg/kg/injection, schedule: Q01DX009 (ip), vehicle: saline 105 % of control | dose: 50.0 mg/kg/injection, schedule: Q01DX009 (ip), vehicle: saline 101 % of control

C=C1CCN(c2ccc([N+](=O)[O-])cc2)C1=O
inactive: dose: 4.0 mg/kg/injection, schedule: Q01DX009 (ip), vehicle: saline + alcohol 94 % of control | dose: 8.0 mg/kg/injection, schedule: Q01DX009 (ip), vehicle: saline + alcohol 101 % of control | dose: 16.0 mg/kg/injection, schedule: Q01DX009 (ip), vehicle: saline + alcohol 102 % of control | dose: 32.0 mg/kg/injection, schedule: Q01DX009 (ip), vehicle: saline + alcohol 96 % of control | dose: 64.0 mg/kg/injection, schedule: Q01DX009 (ip), vehicle: saline + alcohol 88 % of control

CN=C(NC#N)NCCSCc1ccc2ccccc2n1
inactive: dose: 50.0 mg/kg/injection, schedule: Q01DX005 (ip), vehicle: distilled water + Tween-80 + alcohol 115 % of control | dose: 100.0 mg/kg/injection, schedule: Q01DX005 (ip), vehicle: distilled water + Tween-80 + alcohol 94 % of control

O=S(=O)(F)c1ncnc2nc[nH]c12
inactive: [10] 93 % of control | [11] 103 % of control | [12] 112 % of control

C1CCC2(CC1)SC1(CCCCC1)SC1(CCCCC1)S2
inactive: dose: 100.0 mg/kg/injection, schedule: Q04DX003 (ip), vehicle: other 100 % of control | dose: 200.0 mg/kg/injection, schedule: Q04DX003 (ip), vehicle: other 90 % of control | dose: 400.0 mg/kg/injection, schedule: Q04DX003 (ip), vehicle: other 95 % of control

Nc1nc([Se]c2nc(N)nc3c2ncn3C2OC(CO)C(O)C2O)c2ncn(C3OC(CO)C(O)C3O)c2n1 (stereo unspecified)
active: dose: 25.0 mg/kg/injection, schedule: Q01DX005 (ip), vehicle: distilled water + Tween-80 150 % of control | dose: 50.0 mg/kg/injection, schedule: Q01DX005 (ip), vehicle: distilled water + Tween-80 161 % of control | dose: 100.0 mg/kg/injection, schedule: Q01DX005 (ip), vehicle: distilled water + Tween-80 156 % of control

CN(C)C(CC(=O)O)C(=O)O (stereo unspecified)
inactive: dose: 50.0 mg/kg/injection, schedule: Q01DX009 (ip), vehicle: water 108 % of control | dose: 100.0 mg/kg/injection, schedule: Q01DX009 (ip), vehicle: water 98 % of control | dose: 200.0 mg/kg/injection, schedule: Q01DX009 (ip), vehicle: water 99 % of control

Cc1cccc(/C=N/NC(N)=S)n1
inactive: dose: 15.0 mg/kg/injection, schedule: Q04DX002 (ip), vehicle: saline with Tween-80 105 % of control | dose: 30.0 mg/kg/injection, schedule: Q04DX002 (ip), vehicle: saline with Tween-80 106 % of control | dose: 60.0 mg/kg/injection, schedule: Q04DX002 (ip), vehicle: saline with Tween-80 106 % of control

COc1cc(O)c2c(c1)C(O)C(O)CC1OC1C(=O)/C=C/CC(C)OC2=O (stereo unspecified)
inactive: dose: 1.56 mg/kg/injection, schedule: Q01DX005 (ip), vehicle: saline with Tween-80 115 % of control | dose: 3.12 mg/kg/injection, schedule: Q01DX005 (ip), vehicle: saline with Tween-80 107 % of control | dose: 6.25 mg/kg/injection, schedule: Q01DX005 (ip), vehicle: saline with Tween-80 107 % of control | dose: 12.5 mg/kg/injection, schedule: Q01DX005 (ip), vehicle: saline with Tween-80 114 % of control

O=C(Nc1ccc(Cl)cc1)Nc1nccs1
inactive: dose: 12.5 mg/kg/injection, schedule: Q01DX009 (ip), vehicle: distilled water + Tween-80 100 % of control | dose: 25.0 mg/kg/injection, schedule: Q01DX009 (ip), vehicle: distilled water + Tween-80 109 % of control | dose: 50.0 mg/kg/injection, schedule: Q01DX009 (ip), vehicle: distilled water + Tween-80 111 % of control | dose: 100.0 mg/kg/injection, schedule: Q01DX009 (ip), vehicle: distilled water + Tween-80 118 % of control

CS(=O)(=O)NCCSSCCNS(C)(=O)=O
inactive: [10] 106 % of control | [11] 103 % of control | [12] 112 % of control

COc1cccc2c1C(=O)c1c(O)c3c(c(O)c1C2=O)CC(O)(C(C)=O)CC3OC1CC(NCC2(O)OCC(O)C(OC3OC(CO)C(O)C(O)C3O)C2O)C(O)C(C)O1 (stereo unspecified)
inactive: dose: 1.56 mg/kg/injection, schedule: Q04DX003 (ip), vehicle: water 100 % of control | dose: 3.12 mg/kg/injection, schedule: Q04DX003 (ip), vehicle: water 98 % of control and 99 % of control | dose: 3.13 mg/kg/injection, schedule: Q04DX003 (ip), vehicle: water 95 % of control | dose: 6.25 mg/kg/injection, schedule: Q04DX003 (ip), vehicle: water 99 % of control and 102 % of control and 103 % of control | dose: 12.5 mg/kg/injection, schedule: Q04DX003 (ip), vehicle: water 100 % of control | dose: 25.0 mg/kg/injection, schedule: Q04DX003 (ip), vehicle: water 105 % of control and 108 % of control and 119 % of control | dose: 50.0 mg/kg/injection, schedule: Q04DX003 (ip), vehicle: water 119 % of control

CS(=O)(=O)OC1COC(c2ccccc2)OC1C1OC(c2ccccc2)OCC1OS(C)(=O)=O (stereo unspecified)
inactive: dose: 100.0 mg/kg/injection, schedule: Q01DX001 (ip), vehicle: Klucel (hydroxypropylcellulose) (HPC) 92 % of control | dose: 200.0 mg/kg/injection, schedule: Q01DX001 (ip), vehicle: Klucel (hydroxypropylcellulose) (HPC) 101 % of control | dose: 400.0 mg/kg/injection, schedule: Q01DX001 (ip), vehicle: Klucel (hydroxypropylcellulose) (HPC) 99 % of control

C=C1C=CN(C(C)=O)C(OC(C)=O)C1SC(C)(C)C (stereo unspecified)
inactive: dose: 60.0 mg/kg/injection, schedule: Q01DX005 (ip), vehicle: saline with Tween-80 97 % of control | dose: 120.0 mg/kg/injection, schedule: Q01DX005 (ip), vehicle: saline with Tween-80 95 % of control | dose: 240.0 mg/kg/injection, schedule: Q01DX005 (ip), vehicle: saline with Tween-80 97 % of control

CCCCCCCCCCOc1cc2c(=O)c(C(=O)OCC)c[nH]c2cc1OCC
inactive: [1] 102 % of control | [2] 98 % of control | [3] 108 % of control

CC(C)COC(=O)NC1c2ccccc2Oc2ccccc21
inactive: [10] 95 % of control | [11] 93 % of control | [12] 89 % of control

O=C1C2C3C=CC(C2C(=O)N1Cc1ccccc1)C1C2C(=O)N(Cc4ccccc4)C(=O)C2C31 (stereo unspecified)
inactive: [7] 101 % of control | [8] 90 % of control
